Literature values, collected in patent publication US8529964B1, “Method and composition for suppression and control of citrus canker and other plant diseases” (priority 2010, dated 2013).

O.O.O=C([O-])c1ccccc1.O=C([O-])c1ccccc1.[Cu+2] [copper benzoate dehydrate]
water solubility (in words): slightly water soluble
